One may read the EC50 as the concentration giving half of the maximal effect. Usually Emax stands for the size of the effect at its maximum, as opposed to the concentration needed.

The source of these data is US20240208992A1, “MACROCYCLES AS CFTR MODULATORS” (Idorsia Pharmaceuticals Ltd, priority 2021, published 2024).

This assay has as its target human F508del-CFTR (Homo sapiens, UniProt P13569, DEL508-508). The assay is described as follows: F508del-CFTR cell surface expression (corrector activity), DiscoveRx ß-galactosidase complementation chemiluminescence assay in recombinant U2OS cell line.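 As to all read-outs here: U2OS cells co-expressing ProLink-tagged F508del-CFTR and a membrane-anchored enzyme acceptor, where more surface CFTR restores β-galactosidase activity measured by chemiluminescence.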 The conditions noted are these: U2OS cells, 16h compound incubation; for EC50: EC50, F508del-CFTR cell surface expression, geomean of several measurements; for Emax: U2OS, in relation to the Emax of the corrector lumacaftor (=100%), arithmetic mean.

Chain of human F508del-CFTR (P13569 with tags, fused parts or gaps DEL508-508): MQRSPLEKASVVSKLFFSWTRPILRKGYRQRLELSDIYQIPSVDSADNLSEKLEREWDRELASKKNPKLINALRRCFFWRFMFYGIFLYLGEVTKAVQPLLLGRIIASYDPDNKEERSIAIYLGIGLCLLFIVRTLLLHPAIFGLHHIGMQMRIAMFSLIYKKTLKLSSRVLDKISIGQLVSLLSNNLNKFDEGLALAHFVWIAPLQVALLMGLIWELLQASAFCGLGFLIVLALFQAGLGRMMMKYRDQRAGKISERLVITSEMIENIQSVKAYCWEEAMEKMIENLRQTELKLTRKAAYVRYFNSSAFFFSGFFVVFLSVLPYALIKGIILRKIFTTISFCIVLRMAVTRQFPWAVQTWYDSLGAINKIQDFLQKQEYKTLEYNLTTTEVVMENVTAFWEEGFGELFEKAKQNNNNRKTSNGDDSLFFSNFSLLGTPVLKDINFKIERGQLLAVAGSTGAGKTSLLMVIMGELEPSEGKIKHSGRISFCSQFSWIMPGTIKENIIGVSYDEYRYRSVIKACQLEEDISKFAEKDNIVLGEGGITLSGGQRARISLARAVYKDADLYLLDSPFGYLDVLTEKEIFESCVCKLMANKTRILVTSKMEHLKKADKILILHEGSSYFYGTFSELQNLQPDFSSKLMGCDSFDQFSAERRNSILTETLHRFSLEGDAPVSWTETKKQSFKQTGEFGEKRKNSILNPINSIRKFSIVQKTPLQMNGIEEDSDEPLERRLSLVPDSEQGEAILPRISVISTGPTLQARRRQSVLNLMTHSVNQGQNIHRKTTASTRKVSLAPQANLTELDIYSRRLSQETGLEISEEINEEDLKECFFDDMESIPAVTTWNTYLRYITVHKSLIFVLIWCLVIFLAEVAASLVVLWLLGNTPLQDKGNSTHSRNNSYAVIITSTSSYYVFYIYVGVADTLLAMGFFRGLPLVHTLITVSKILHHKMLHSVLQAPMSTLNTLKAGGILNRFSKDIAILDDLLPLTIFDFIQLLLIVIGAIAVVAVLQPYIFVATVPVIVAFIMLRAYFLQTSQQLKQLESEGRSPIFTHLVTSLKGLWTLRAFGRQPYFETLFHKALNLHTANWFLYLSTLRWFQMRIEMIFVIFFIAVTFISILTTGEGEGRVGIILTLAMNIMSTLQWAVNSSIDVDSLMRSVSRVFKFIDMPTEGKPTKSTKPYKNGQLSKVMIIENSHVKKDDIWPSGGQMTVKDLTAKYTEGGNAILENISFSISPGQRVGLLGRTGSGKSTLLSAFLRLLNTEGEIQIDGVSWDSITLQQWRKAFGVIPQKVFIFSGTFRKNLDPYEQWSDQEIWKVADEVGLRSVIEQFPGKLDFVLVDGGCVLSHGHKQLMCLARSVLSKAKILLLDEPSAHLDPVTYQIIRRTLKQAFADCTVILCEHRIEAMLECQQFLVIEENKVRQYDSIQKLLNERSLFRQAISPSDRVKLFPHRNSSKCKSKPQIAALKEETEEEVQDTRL

With `COc1cc(CCNC(=O)[C@@H]2CC(=O)N(C)[C@@H](CC(C)C)C(=O)N(C)[C@H](CCc3nc(C4CCCC4)no3)C(=O)N[C@H](Cc3ccccc3)COc3ccnc(OC)c3C(=O)N2)on1` [Example 884, (3R,6R,9S,13S)-3-benzyl-6-(2-(3-cyclopentyl-1,2,4-oxadiazol-5-yl)ethyl)-9-isobutyl-16-methoxy-N-(2-(3-methoxyisoxazol-5-yl)ethyl)-7,10-dimethyl-5,8,11,15-tetraoxo-2,3,4,5,6,7,8,9,10,11,12,13,14,15-tetradecahydropyrido[3,4-p][1]oxa[4,7,10,14]tetraazacycloheptadecine-13-carboxamide], the EC50 was 0.096 µM and the Emax came out at 385%.
Taken in the same sequence, the figures for `CC(C)C[C@H]1C(=O)N(C)[C@H](Cn2cc(-c3ccc(F)cn3)nn2)C(=O)N[C@H](Cc2ccccc2)COc2cnc3ccc(F)cc3c2C(=O)N[C@H](C(=O)NCCc2noc(C3CC3)n2)CC(=O)N1C` [Example 885, (3S,7S,10R,13R)-13-benzyl-N-(2-(5-cyclopropyl-1,2,4-oxadiazol-3-yl)ethyl)-20-fluoro-10-((4-(5-fluoropyridin-2-yl)-1H-1,2,3-triazol-1-yl)methyl)-7-isobutyl-6,9-dimethyl-1,5,8,11-tetraoxo-1,2,3,4,5,6,7,8,9,10,11,12,13,14-tetradecahydro-[1]oxa[4,7,10,14]tetraazacycloheptadecino[17,16-c]quinoline-3-carboxamide] were 0.078 µM and 328%.
As for `CC(C)C[C@H]1C(=O)N(C)[C@H](Cc2cc(C(C)(C)C)no2)C(=O)N[C@H](Cc2ccccc2)COc2cnc3ccc(F)cc3c2C(=O)N[C@H](C(=O)NCCc2noc(C3CC3)n2)CC(=O)N1C` [Example 886, (3S,7S,10R,13R)-13-benzyl-10-((3-(tert-butyl)isoxazol-5-yl)methyl)-N-(2-(5-cyclopropyl-1,2,4-oxadiazol-3-yl)ethyl)-20-fluoro-7-isobutyl-6,9-dimethyl-1,5,8,11-tetraoxo-1,2,3,4,5,6,7,8,9,10,11,12,13,14-tetradecahydro-[1]oxa[4,7,10,14]tetraazacycloheptadecino[17,16-c]quinoline-3-carboxamide], the concentration for a half-maximal effect (EC50) is 0.015 µM and the maximal effect (Emax) is 359%.
Taken in the same sequence, the figures for `CC(C)C[C@H]1C(=O)N(C)[C@H](CCc2nc(-c3ccc(F)cn3)no2)C(=O)N[C@H](Cc2ccccc2)COc2cnc3ccc(F)cc3c2C(=O)N[C@H](C(=O)NCCc2noc(C3CC3)n2)CC(=O)N1C` [Example 887, (3S,7S,10R,13R)-13-benzyl-N-(2-(5-cyclopropyl-1,2,4-oxadiazol-3-yl)ethyl)-20-fluoro-10-(2-(3-(5-fluoropyridin-2-yl)-1,2,4-oxadiazol-5-yl)ethyl)-7-isobutyl-6,9-dimethyl-1,5,8,11-tetraoxo-1,2,3,4,5,6,7,8,9,10,11,12,13,14-tetradecahydro-[1]oxa[4,7,10,14]tetraazacycloheptadecino[17,16-c]quinoline-3-carboxamide] were 0.111 µM and 340%.
As to `Cc1cc2c(c3cccnc13)C(=O)N[C@H](C(=O)NCCn1nnc(C3CC3)n1)CC(=O)N(C)[C@@H](CC(C)C)C(=O)N1CCCC[C@@H]1C(=O)N[C@H](Cc1ccccc1)CO2` [Example 888, (9S,13S,19aR,22R)-22-benzyl-N-(2-(5-cyclopropyl-2H-tetrazol-2-yl)ethyl)-13-isobutyl-2,12-dimethyl-7,11,14,20-tetraoxo-7,8,9,10,11,12,13,14,17,18,19,19a,20,21,22,23-hexadecahydro-16H-pyrido[2′,1′:6,7][1]oxa[4,7,10,14]tetraazacycloheptadecino[16,17-f]quinoline-9-carboxamide], the half-maximal effective concentration (EC50) was determined as 0.17 µM and the maximum response (Emax) turned out to be 410%.
Take `Cc1cc2c3c(ccc2cn1)OC[C@@H](Cc1ccccc1)NC(=O)[C@@H](Cc1nc(C(F)(F)F)no1)N(C)C(=O)[C@H](CC(C)C)N(C)C(=O)C[C@@H](C(=O)NCCc1noc(C2CC2)n1)NC3=O` [Example 889, (3S,7S,10R,13R)-13-benzyl-N-(2-(5-cyclopropyl-1,2,4-oxadiazol-3-yl)ethyl)-7-isobutyl-6,9,20-trimethyl-1,5,8,11-tetraoxo-10-((3-(trifluoromethyl)-1,2,4-oxadiazol-5-yl)methyl)-1,2,3,4,5,6,7,8,9,10,11,12,13,14-tetradecahydro-[1]oxa[4,7,10,14]tetraazacycloheptadecino[16,17-f]isoquinoline-3-carboxamide]: the half-maximal effective concentration (EC50) amounted to 0.034 µM and the maximal effect (Emax) turned out to be 403%.
Regarding `Cc1cc2c3c(ccc2cn1)OC[C@@H](Cc1ccccc1)NC(=O)[C@@H](Cc1nc(C(F)(F)F)no1)N(C)C(=O)[C@H](CC(C)C)N(C)C(=O)C[C@@H](C(=O)NCCn1nnc(C2CC2)n1)NC3=O` [Example 890, (3S,7S,10R,13R)-13-benzyl-N-(2-(5-cyclopropyl-2H-tetrazol-2-yl)ethyl)-7-isobutyl-6,9,20-trimethyl-1,5,8,11-tetraoxo-10-((3-(trifluoromethyl)-1,2,4-oxadiazol-5-yl)methyl)-1,2,3,4,5,6,7,8,9,10,11,12,13,14-tetradecahydro-[1]oxa[4,7,10,14]tetraazacycloheptadecino[16,17-f]isoquinoline-3-carboxamide], the concentration for a half-maximal effect (EC50) is 0.034 µM and the maximal effect (Emax) worked out at 409%.
For `CC(C)C[C@H]1C(=O)N(C)[C@H](Cc2nc(-c3ccc(F)cn3)no2)C(=O)N[C@H](Cc2ccccc2)COc2ccc3ncc(F)cc3c2C(=O)N[C@H](C(=O)NC[C@@H](O)c2nc(C3CC3)no2)CC(=O)N1C` [Example 892, (3S,7S,10R,13R)-13-benzyl-N-((R)-2-(3-cyclopropyl-1,2,4-oxadiazol-5-yl)-2-hydroxyethyl)-20-fluoro-10-((3-(5-fluoropyridin-2-yl)-1,2,4-oxadiazol-5-yl)methyl)-7-isobutyl-6,9-dimethyl-1,5,8,11-tetraoxo-1,2,3,4,5,6,7,8,9,10,11,12,13,14-tetradecahydro-[1]oxa[4,7,10,14]tetraazacycloheptadecino[16,17-f]quinoline-3-carboxamide], the EC50 was found to be 0.467 µM and the Emax came to 442%.
Turning to `CC(C)C[C@H]1C(=O)N(C)[C@H](CC(F)F)C(=O)N[C@H](Cc2ccccc2)COc2ccc3ncc(F)cc3c2C(=O)N[C@H](C(=O)NCCn2nnc(C3CC3)n2)CC(=O)N1C` [Example 893, (3S,7S,10R,13R)-13-benzyl-N-(2-(5-cyclopropyl-2H-tetrazol-2-yl)ethyl)-10-(2,2-difluoroethyl)-20-fluoro-7-isobutyl-6,9-dimethyl-1,5,8,11-tetraoxo-1,2,3,4,5,6,7,8,9,10,11,12,13,14-tetradecahydro-[1]oxa[4,7,10,14]tetraazacycloheptadecino[16,17-f]quinoline-3-carboxamide], the EC50 stood at 0.216 µM and the Emax is 394%.
With `CCOCC[C@@H]1C(=O)N[C@H](Cc2ccccc2)COc2ccc3ncc(F)cc3c2C(=O)N[C@H](C(=O)NCCc2cc(C)no2)CC(=O)N(C)[C@@H](CC(C)C)C(=O)N1C` [Example 894, (3S,7S,10R,13R)-13-benzyl-10-(2-ethoxyethyl)-20-fluoro-7-isobutyl-6,9-dimethyl-N-(2-(3-methylisoxazol-5-yl)ethyl)-1,5,8,11-tetraoxo-1,2,3,4,5,6,7,8,9,10,11,12,13,14-tetradecahydro-[1]oxa[4,7,10,14]tetraazacycloheptadecino[16,17-f]quinoline-3-carboxamide], the EC50 was 0.339 µM and the Emax amounted to 431%.
In the case of `CCOCC[C@@H]1C(=O)N[C@H](Cc2ccccc2)COc2ccc3ncc(F)cc3c2C(=O)N[C@H](C(=O)NCCc2cc(OC)no2)CC(=O)N(C)[C@@H](CC(C)C)C(=O)N1C` [Example 895, (3S,7S,10R,13R)-13-benzyl-10-(2-ethoxyethyl)-20-fluoro-7-isobutyl-N-(2-(3-methoxyisoxazol-5-yl)ethyl)-6,9-dimethyl-1,5,8,11-tetraoxo-1,2,3,4,5,6,7,8,9,10,11,12,13,14-tetradecahydro-[1]oxa[4,7,10,14]tetraazacycloheptadecino[16,17-f]quinoline-3-carboxamide], the EC50 was 0.136 µM and the Emax is 409%.
Taken in the same sequence, the figures for `CCOCC[C@@H]1C(=O)N[C@H](Cc2ccccc2)COc2ccc3ncc(F)cc3c2C(=O)N[C@H](C(=O)NCCn2nnc(C3CC3)n2)CC(=O)N(C)[C@@H](CC(C)C)C(=O)N1C` [Example 896, (3S,7S,10R,13R)-13-benzyl-N-(2-(5-cyclopropyl-2H-tetrazol-2-yl)ethyl)-10-(2-ethoxyethyl)-20-fluoro-7-isobutyl-6,9-dimethyl-1,5,8,11-tetraoxo-1,2,3,4,5,6,7,8,9,10,11,12,13,14-tetradecahydro-[1]oxa[4,7,10,14]tetraazacycloheptadecino[16,17-f]quinoline-3-carboxamide] were 0.188 µM and 427%.
With `COc1cc(CCNC(=O)[C@@H]2CC(=O)N(C)[C@@H](CC(C)C)C(=O)N(C)[C@H](Cc3nc(C(F)(F)F)no3)C(=O)N[C@H](Cc3ccccc3)COc3cc(C)nc(OC)c3C(=O)N2)on1` [Example 897, (3R,6R,9S,13S)-3-benzyl-9-isobutyl-16-methoxy-N-(2-(3-methoxyisoxazol-5-yl)ethyl)-7,10,18-trimethyl-5,8,11,15-tetraoxo-6-((3-(trifluoromethyl)-1,2,4-oxadiazol-5-yl)methyl)-2,3,4,5,6,7,8,9,10,11,12,13,14,15-tetradecahydropyrido[3,4-p][1]oxa[4,7,10,14]tetraazacycloheptadecine-13-carboxamide], the EC50 was 0.032 µM and the Emax worked out at 454%.
